# Experimental data: publication PMC8280112, “Substrate reduction therapy for Krabbe disease and metachromatic leukodystrophy using a novel ceramide galactosyltransferase inhibitor” (Scientific Reports, 2021)
# pIC50: −log10 of the molar value.
# Experiments:
# [1] = biological target: T1, Glucosylceramide synthase (GCS) (Canis lupus familiaris, UniProt A0A8I3MXG6); assay: Glucosylceramide synthase assay; type: biochemical; settings: MDCK cell lysate
# T1 construct: endogenous in cells; host or cells: MDCK cell lysate
# T1 sequence (A0A8I3MXG6 1-394): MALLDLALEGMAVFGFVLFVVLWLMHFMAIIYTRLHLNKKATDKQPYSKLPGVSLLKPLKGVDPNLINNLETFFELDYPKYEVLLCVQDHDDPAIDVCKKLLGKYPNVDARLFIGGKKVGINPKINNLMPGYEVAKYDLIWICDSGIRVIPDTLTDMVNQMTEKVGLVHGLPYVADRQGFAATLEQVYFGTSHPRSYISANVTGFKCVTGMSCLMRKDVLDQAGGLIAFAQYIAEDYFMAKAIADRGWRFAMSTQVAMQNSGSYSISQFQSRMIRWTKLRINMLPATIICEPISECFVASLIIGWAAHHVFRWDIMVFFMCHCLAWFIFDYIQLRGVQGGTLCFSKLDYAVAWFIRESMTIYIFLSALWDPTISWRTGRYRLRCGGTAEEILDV
# Description: Modified from Larsen et al.[46]. Briefly, 60 μg of MDCK cell lysate was incubated with […] in 100 mM Tris buffer (pH 7.5), 10 mM MgCl2, 1 mM dithiothreitol, 1 mM EGTA, 2 mM NAD, 100 μM UDP-glucose, 10 μM C6-NBD-Ceramide (Matreya), 35 μM DOPC, and 5 μM sulfatide (Sigma) at 37 °C for 1 h. The reaction was stopped with equal volume of acetonitrile and 50 μL was added to 100 μL of acetonitrile containing 100 ng/mL tolbutamide IS and centrifuged. Next, 70 μL of supernatant was mixed with 140 μL H2O before LC-MS analysis. NBD-Glucosylceramide quantification was performed on a Shimadzu ultra-fast liquid chromatography system (Shimadzu) coupled with an API 4000 triple quadrupole mass spectrometer in ESI positive mode (Applied Biosystems) and a Xbridge BEH130 CI 8, 100 mm × 4.6 mm i.d, 3.5 μm column (Waters). The mobile phase consisted of water and acetonitrile supplemented with 0.1% formic acid (v/v).
# [2] = tested on: GalCer and sulfatide levels; assay: PND3 wild-type mouse repeat dose study: LC-MS of GalCer and sulfatide in brain and sciatic nerve; type: in vivo; settings: wild-type mice
# Description: Animals were euthanized by exsanguinations under deep anesthesia, the brain and sciatic nerve were removed, rinsed in cold saline, dried, and snap frozen for lipid quantification.
# Whole brain was homogenized in 3 volumes H2O (v/w) and further diluted as necessary in H2O. Given the small size, the sciatic nerve weight was recorded and homogenized in a larger fixed volume. 25 µL of diluted homogenate was added to 35 µL DMSO, 200 µL of methanol, and 325 µL acetone/methanol (50/50) and vortexed approximately 30 min. Next, 150 µL water and 300 µL water/methanol (13/87) were added before centrifuging for 5 min at RT at 14,000 rpm. […] supernatant was transferred onto a pre-conditioned C18-SPE cartridge, washed with 2 mL methanol/acetone/water (67/23/10), and eluted with 1.5 mL acetone/methanol (90/10). The eluate was dried before reconstituting with 50 µL DMSO (including N-C16:0-CD3-Glucosylceramide, IS Matreya) and 200 ACN. 3 µL of suspension was injected into LC–MS/MS for analysis. GalCers were separated from isobaric GluCers by Halo-Hilic (4.6 × 150 mm, 2.7 µm) column with a mobile phase of 95/2.5/2.5 ACN/MeOH/H2O (with 0.5 FA + 5 mM NH4OAc) 100% for 9.5 min at 50 °C and a 0.50 mL/min flow rate. Non-hydroxy-GalCer and 2-hydroxy-GalCer were detected using MRM on an LC–MS/MS (Agilent 6410) in positive ESI mode. Purified non-hydroxy-GalCer (Kerasin, Matreya) or 2-hydroxy-GalCer (Phrenosin, Matreya) were used as reference standards. All non-hydroxy-GalCer or 2-hydroxy-GalCer species identified in the reference standards were summed, normalized to the IS, and reported as percentage of vehicle control (Fig. 2B,C). In Supplementary Figure S1, individual acyl chains were identified, normalized to the IS, and plotted as percentage of vehicle control.
# Previously diluted brain homogenate was serially diluted (10 µL into 90 µL and then 20 µL into 80 µL) in ACN/H2O (v/v 1:1) before being added to 300 µL ACN with IS (N-C18:0-CD3-sulfatide, Matreya). […] Non-hydroxy-sulfatide and 2-hydroxy-sulfatide were detected using MRM on a UPLC-MS/MS-22 (Triple Quad 6500) in positive ESI mode. […]
smiles,measurement,setting,value
C[C@H]1N(c2ccc(Br)cc2)C(=O)N(c2ccc(Br)cc2)C1(O)c1cccc(OC(F)(F)F)c1 (stereo partly shown) [S202],pIC50,[1],< 4.30
same,GalCer synthesis in the brains,[2]; higher doses (> 1.5 mg/kg),reduced synthesis of both non-hydroxy-GalCer and 2-hydroxy-GalCer
same,2-hydroxy-GalCer levels in the brains,[2]; lower doses,consistently increase
same,non-hydroxy-GalCer levels in the brains,[2]; lower doses (0.015 to 0.5 mg/kg),greatly decreased
